Data on three molecules can be found in ChEMBL document CHEMBL1649431, “Molecular mechanisms of macrolide resistance in clinical isolates of Mycoplasma pneumoniae from China” (2009).

Structures are written as SMILES. ≈ marks a conversion by molar mass, not a printed value.

For assay [1], the system named is Mycoplasmoides pneumoniae. As to the kind of experiment: Antimicrobial activity against Mycoplasma pneumoniae FH by microdilution method. In kind it is functional. (In general: Broth dilution looks for growth in wells or tubes with falling amounts of substance.)
Assay [2] has as its system Mycoplasmoides pneumoniae. As to the kind of experiment: Antimicrobial activity against Mycoplasma pneumoniae clinical isolate harboring point mutations in 23S rRNA at positions 2063 and 2064 isolated from human respiratory tract by microdilution method. In kind it is functional.

With `CO[C@@H]1[C@@H](O[C@@H]2O[C@H](C)[C@@H](O[C@H]3C[C@@](C)(O)[C@@H](OC(=O)CC(C)C)[C@H](C)O3)[C@H](N(C)C)[C@H]2O)[C@@H](CC=O)C[C@@H](C)[C@@H](O)/C=C/C=C/C[C@@H](C)OC(=O)C[C@H]1OC(C)=O` [JOSAMYCIN], in assay [1], the MIC – broadly, the least concentration at which growth counts as inhibited – stood at 0.1 µg/mL (≈ 0.121 µM). Also, in assay [2], the MIC came out at 0.01 µg/mL (≈ 0.0121 µM); the MIC50 (in general, an inhibitory concentration at the 50% level, which refers to growth in some studies and to a panel of isolates in others) was determined as 32 µg/mL (≈ 38.6 µM); the MIC90 – broadly, an inhibitory concentration at the 90% level, which refers to growth in some studies and to a panel of isolates in others – turned out to be 64 µg/mL (≈ 77.3 µM).
Taken in the same sequence, the figures for `CC[C@H]1OC(=O)[C@H](C)[C@@H](O[C@H]2C[C@@](C)(OC)[C@@H](O)[C@H](C)O2)[C@H](C)[C@@H](O[C@@H]2O[C@H](C)C[C@H](N(C)C)[C@H]2O)[C@](C)(O)C[C@@H](C)CN(C)[C@H](C)[C@@H](O)[C@]1(C)O` [AZITHROMYCIN] were 0.001 µg/mL (≈ 0.00134 µM), 0.001 µg/mL (≈ 0.00134 µM), 128 µg/mL (≈ 171 µM) and 256 µg/mL (≈ 342 µM).
`CC[C@H]1OC(=O)[C@H](C)[C@@H](O[C@H]2C[C@@](C)(OC)[C@@H](O)[C@H](C)O2)[C@H](C)[C@@H](O[C@@H]2O[C@H](C)C[C@H](N(C)C)[C@H]2O)[C@](C)(O)C[C@@H](C)C(=O)[C@H](C)[C@@H](O)[C@]1(C)O` [ERYTHROMYCIN]: in assay [1], the MIC came to 0.01 µg/mL (≈ 0.0136 µM). Also, in assay [2], the MIC was found to be 0.01 µg/mL (≈ 0.0136 µM), the MIC50 came out at 128 µg/mL (≈ 174 µM) and the MIC90 was found to be 512 µg/mL (≈ 698 µM).
